Experimental data taken from patent US8557859B2, “Immunomodulatory compositions” (Summit (Wales) Limited, priority 2003, dated 2013).

Tests used:
β-D-galactosidase = assay: Glycosidase inhibition, β-D-galactosidase; type: biochemical, Bovine liver; settings: 1 mg/ml; second galactosidase line
Protocol: (§1) All enzymes were purchased from Sigma, as were the appropriate p-nitrophenyl substrates. Assays were carried out in microtitre plates. Enzymes were assayed in 0.1 M citric acid/0.2M di-sodium hydrogen phosphate (McIlvaine) buffers at the optimum pH for the enzyme. All assays were carried out at 20° C. For screening assays the incubation assay consisted of 10 μl of enzyme solution, 10 μl of inhibitor solution (made up in water) and 50 μl of the appropriate 5 mM p-nitrophenyl substrate (3.57 mM final conc.) made up in McIlvaine buffer at the optimum pH for the enzyme.
(§2) The reactions were stopped with 0.4M glycine (pH 10.4) during the exponential phase of the reaction, which was determined at the beginning of the assay using blanks with water, which were incubated for a range of time periods to measure the reaction rate using 5 mM substrate solution. Endpoint absorbances were read at 405 nm with a Biorad microtitre plate reader (Benchmark). Water was substituted for the inhibitors in the blanks.

[1] = tested on: N-acetyl-β-D-glucosaminidase; assay: Glycosidase inhibition, N-acetyl-β-D-glucosaminidase; type: biochemical, Bovine kidney; settings: 1 mg/ml
Protocol: as §1, §2

[2] = tested on: Na^+-dependent D-glucose uptake into ovine intestinal brush border membrane vesicles; assay: Effect on glucose transport (competition assay with labelled D-glucose); type: biochemical
[3] = molecular target: rabbit gut mucosa α-D-glucosidase; assay: Inhibition of rabbit gut mucosa α-D-glucosidase; type: biochemical
α-D-glucosidase = assay: Glycosidase inhibition, α-D-glucosidase (Bacillus); type: biochemical, Bacillus stearothermophilus; settings: 1 mg/ml
Protocol: as §1, §2

MCF-7 cells = assay: Effect on glycosylation of breast cancer cells; type: cell-based; settings: MCF-7, 0.75 mM; difference from untreated cells at the 62 and 86 hour time points
Protocol: MCF-7 cells (European Collection of Cell Cultures Ref. 86012803) were taken from liquid nitrogen stock, thawed at room temperature and transferred to 10 ml Dulbeccos Modified Eagle's Medium with Hams F12, 15 mM Hepes and L-glutamine (DMEM: Cambrex Cat. No. BE12-719F) supplemented with 10% v/v foetal calf serum (FCS: BioWest Labs Cat. No. S02755, Lot. No. S1800). The FCS was pre-filtered through a 0.2 μm steril filter.
The cells were then centrifuged at 1,500 rpm in a Centaur bench-top centrifuge and the supernatant removed. The cells were reconstituted in fresh media and seeded into two T75 cm^3 Nunclon tissue culture flasks and allowed to settle overnight at 37° C. in a 5% CO2 incubator. The flasks were wrapped in cling film to prevent cross-contamination and the following day the media was changed to include the antibiotics penicillin and streptomycin as a precautionary measure against infection (at concentrations of 1 mg/cm^3 and 5 mg/cm^3, respectively). […]
The cells were harvested using a non-enzymatic method. At each of the time points the cells were viewed under the inverted light microscope and the morphology evaluated. […] The number of cells was then counted in a haemocytometer and cell viability evaluated by mixing 0.1 cm^3 of each cell suspension with a drop of trypan blue solution. […]
Evaluated using the BioRad protein assay according to the manufacturer's instructions. […]

Naringinase = assay: Glycosidase inhibition, Naringinase; type: biochemical, Penecillium decumbens; settings: 1 mg/ml
Protocol: as §1, §2

[4] = molecular target: T1, rabbit small intestine sucrase (Oryctolagus cuniculus, UniProt P07768); assay: Inhibition of rabbit small intestine sucrase; type: biochemical; settings: at a concentration of 700 μM
T1 construct: from tissue; host or cells: rabbit small intestine
T1 sequence (P07768 whole entry): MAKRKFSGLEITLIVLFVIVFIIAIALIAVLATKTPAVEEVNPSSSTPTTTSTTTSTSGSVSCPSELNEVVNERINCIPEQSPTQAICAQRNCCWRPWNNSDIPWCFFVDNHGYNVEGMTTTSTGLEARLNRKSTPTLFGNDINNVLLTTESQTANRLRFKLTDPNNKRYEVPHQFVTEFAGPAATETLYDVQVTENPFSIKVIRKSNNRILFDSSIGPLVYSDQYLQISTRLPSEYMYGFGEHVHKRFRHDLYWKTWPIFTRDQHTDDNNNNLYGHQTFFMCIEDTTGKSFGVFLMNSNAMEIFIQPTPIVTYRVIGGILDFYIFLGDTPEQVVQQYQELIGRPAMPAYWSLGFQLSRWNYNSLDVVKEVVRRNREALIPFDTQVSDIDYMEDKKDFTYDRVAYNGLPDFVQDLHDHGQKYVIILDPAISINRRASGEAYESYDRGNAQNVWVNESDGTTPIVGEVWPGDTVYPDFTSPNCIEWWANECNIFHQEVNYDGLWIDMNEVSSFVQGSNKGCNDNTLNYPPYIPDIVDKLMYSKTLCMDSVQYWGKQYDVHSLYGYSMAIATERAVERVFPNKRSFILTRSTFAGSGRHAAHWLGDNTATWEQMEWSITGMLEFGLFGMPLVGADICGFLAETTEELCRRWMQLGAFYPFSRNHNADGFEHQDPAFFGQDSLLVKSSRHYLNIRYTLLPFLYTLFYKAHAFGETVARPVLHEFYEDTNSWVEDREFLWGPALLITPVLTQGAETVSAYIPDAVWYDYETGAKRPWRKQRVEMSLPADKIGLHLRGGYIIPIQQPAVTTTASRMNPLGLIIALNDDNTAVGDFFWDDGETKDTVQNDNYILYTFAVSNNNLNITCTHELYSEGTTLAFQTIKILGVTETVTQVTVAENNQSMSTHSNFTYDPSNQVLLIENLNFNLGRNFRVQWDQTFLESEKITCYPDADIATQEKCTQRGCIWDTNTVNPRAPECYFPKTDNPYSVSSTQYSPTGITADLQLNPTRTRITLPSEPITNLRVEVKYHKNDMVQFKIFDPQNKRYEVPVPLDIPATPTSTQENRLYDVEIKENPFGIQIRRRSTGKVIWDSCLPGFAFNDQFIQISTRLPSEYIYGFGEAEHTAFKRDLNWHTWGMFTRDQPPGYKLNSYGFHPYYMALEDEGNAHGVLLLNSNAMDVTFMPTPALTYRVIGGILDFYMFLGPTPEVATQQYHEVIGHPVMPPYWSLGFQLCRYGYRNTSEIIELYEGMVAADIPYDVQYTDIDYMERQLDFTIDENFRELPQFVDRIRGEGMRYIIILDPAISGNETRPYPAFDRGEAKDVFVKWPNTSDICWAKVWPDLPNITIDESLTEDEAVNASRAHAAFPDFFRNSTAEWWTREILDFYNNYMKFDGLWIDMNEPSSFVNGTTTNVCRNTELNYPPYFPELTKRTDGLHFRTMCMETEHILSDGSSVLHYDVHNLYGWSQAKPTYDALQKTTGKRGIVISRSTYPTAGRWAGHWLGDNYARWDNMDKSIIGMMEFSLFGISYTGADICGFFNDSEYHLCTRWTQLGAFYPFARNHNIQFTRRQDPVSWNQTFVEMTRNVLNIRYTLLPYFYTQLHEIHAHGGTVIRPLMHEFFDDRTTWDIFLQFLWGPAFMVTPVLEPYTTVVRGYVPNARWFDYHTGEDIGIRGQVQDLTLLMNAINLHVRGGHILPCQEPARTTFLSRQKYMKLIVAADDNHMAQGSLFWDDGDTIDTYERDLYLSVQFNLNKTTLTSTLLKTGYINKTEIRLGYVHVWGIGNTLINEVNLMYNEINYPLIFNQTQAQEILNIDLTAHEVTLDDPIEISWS

[5] = Treatment of murine HSV-1 infection: body weight; type: in vivo, BALB/c mice
β-D-glucosidase = assay: Glycosidase inhibition, β-D-glucosidase; type: biochemical, Almonds (Prunus sp.)
Protocol: as §1, §2

HSV-1 (SC16) = assay: Treatment of murine HSV-1 infection: ear pinna thickness; type: in vivo, BALB/c mice; settings: result in words; casuarine at both doses (15 and 150 mg/kg i.p.); famciclovir via drinking water 1 mg/ml
B16-F10 tumour cells = assay: Control of lung metastasis in mice; type: in vivo, Mice (C57/bl6); settings: 50 mg/kg s/c on days 2 and 4; lungs on day 14
Protocol: Mice (C57/bl6 under i/p ketamine anaesthesia) were challenged i/v (tail vein) with 5×10^4 B16-F10 tumour cells in a final volume of 100 μl per mouse on day 0. Test compounds (50 mg/kg in 200 μl sterile non-pyrogenic saline) were administered s/c (right flank) on days 2 and 4. On day 14 the mice were sacrifices and the lungs dissected and stained in Indian ink solution (150 ml bidistilled water, 30 ml India Ink, 4 drops NH4OH) for 10 minutes then fixed for at least 24 hr in Fakete's solution (90 ml 37% formaldehyde, 900 ml 70% EtOH and 45 ml glacial acetic acid). The metastases in the stained and fixed lungs could then be visualized, counted and photographed.

[6] = Group 1: 15 mg/kg i.p. daily, day 0
[7] = Group 1: 15 mg/kg i.p. daily, day 1
[8] = Group 1: 15 mg/kg i.p. daily, day 2
[9] = Group 1: 15 mg/kg i.p. daily, day 3
[10] = Group 1: 15 mg/kg i.p. daily, day 4
[11] = Group 1: 15 mg/kg i.p. daily, day 5
[12] = Group 1: 15 mg/kg i.p. daily, day 6
[13] = Group 1: 15 mg/kg i.p. daily, day 7
[14] = Group 1: 15 mg/kg i.p. daily, day 8
[15] = Group 1: 15 mg/kg i.p. daily, day −2
[16] = Group 2: 150 mg/kg i.p. daily, day 0
[17] = Group 2: 150 mg/kg i.p. daily, day 1
[18] = Group 2: 150 mg/kg i.p. daily, day 2
[19] = Group 2: 150 mg/kg i.p. daily, day 3
[20] = Group 2: 150 mg/kg i.p. daily, day 4
[21] = Group 2: 150 mg/kg i.p. daily, day 5
[22] = Group 2: 150 mg/kg i.p. daily, day 6
[23] = Group 2: 150 mg/kg i.p. daily, day 7
[24] = Group 2: 150 mg/kg i.p. daily, day 8
[25] = Group 2: 150 mg/kg i.p. daily, day −2

OC[C@@H]1[C@@H](O)[C@H](O)[C@H]2[C@H](O)[C@@H](O)CN21 [casuarine (8), (1R,2R,3R,6S,7S,7aR)-3-(hydroxymethyl)-1,2,6,7-tetrahydroxypyrrolizidine]
% inhibition galactosidase (β-D-galactosidase): 0%
% inhibition N-acetyl-β-gluc [1]: 14%
Glucose uptake ([2]; initial rate, control 240): 265 pmol/s/mg
glucose transport ([2]; result in words): slightly stimulated
IC50 [3]: 210 µM
% inhibition gluc (Bacillus) (α-D-glucosidase): 86%
glycan synthesis and/or N-linked glycosylation in breast cancer cells (MCF-7 cells): can inhibit glycan synthesis and/or N-linked glycosylation
% inhibition Naringinase (Naringinase): −2%
inhibition of rabbit small intestine sucrase [4]: inhibited
Group mean weight [5, 6]: 16.7 g
Weight (% change) [5, 6]: 3.1%
Group mean weight [5, 7]: 17.1 g
Weight (% change) [5, 7]: 5.6%
Group mean weight [5, 8]: 17.1 g
Weight (% change) [5, 8]: 5.6%
Group mean weight [5, 9]: 17.6 g
Weight (% change) [5, 9]: 8.6%
Group mean weight [5, 10]: 17.4 g
Weight (% change) [5, 10]: 7.4%
Group mean weight [5, 11]: 17.6 g
Weight (% change) [5, 11]: 8.6%
Group mean weight [5, 12]: 17.7 g
Weight (% change) [5, 12]: 9.2%
Group mean weight [5, 13]: 17.4 g
Weight (% change) [5, 13]: 7.4%
Group mean weight [5, 14]: 17.7 g
Weight (% change) [5, 14]: 9.3%
Group mean weight [5, 15]: 16.2 g
Weight (% change) [5, 15]: 0%
Group mean weight [5, 16]: 16 g
Weight (% change) [5, 16]: 3.2%
Group mean weight [5, 17]: 16.4 g
Weight (% change) [5, 17]: 5.8%
Group mean weight [5, 18]: 16.3 g
Weight (% change) [5, 18]: 5.2%
Group mean weight [5, 19]: 16.6 g
Weight (% change) [5, 19]: 7.1%
Group mean weight [5, 20]: 16.4 g
Weight (% change) [5, 20]: 5.8%
Group mean weight [5, 21]: 16.8 g
Weight (% change) [5, 21]: 8.4%
Group mean weight [5, 22]: 17 g
Weight (% change) [5, 22]: 9.7%
Group mean weight [5, 23]: 16.7 g
Weight (% change) [5, 23]: 7.7%
Group mean weight [5, 24]: 16.8 g
Weight (% change) [5, 24]: 8.4%
Group mean weight [5, 25]: 15.5 g
Weight (% change) [5, 25]: 0%
% inhibition glucosidase (β-D-glucosidase; 1 mg/ml): 0%
inhibition of almond 6-D-glucosidase (β-D-glucosidase; at 800 μM): not being inhibitory
ear thickness response (HSV-1 (SC16)): produced a reduction in ear thickness
Metastatic morphology (B16-F10 tumour cells): Metastasis restricted to apical tip of lung
